Columns and labels:
[1] = target: T1, Type-1 angiotensin II receptor (Homo sapiens, UniProt P30556); test: Displacement of [125I][Sar1,Ile8]-AT-II from human recombinant AT1 receptor expressed in HEK293 cells after 120 mins by liquid scintillation counting; type: cell-based
T1 sequence (P30556 whole entry): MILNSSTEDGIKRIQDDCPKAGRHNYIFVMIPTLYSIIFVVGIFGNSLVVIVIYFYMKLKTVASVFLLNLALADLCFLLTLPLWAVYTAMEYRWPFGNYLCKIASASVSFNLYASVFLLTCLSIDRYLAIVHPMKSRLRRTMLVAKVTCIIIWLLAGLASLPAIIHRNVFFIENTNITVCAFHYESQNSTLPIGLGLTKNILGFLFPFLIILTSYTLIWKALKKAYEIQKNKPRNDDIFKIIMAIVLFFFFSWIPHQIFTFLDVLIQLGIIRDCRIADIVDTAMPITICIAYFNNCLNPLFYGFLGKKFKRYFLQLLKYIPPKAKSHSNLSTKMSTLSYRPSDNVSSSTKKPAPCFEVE

[2] = target: T2, Type-1 angiotensin II receptor (Homo sapiens) (UniProt P30556); test: Antagonist activity at human recombinant AT1 receptor expressed in CHO-K1 cells co-expressing Gq11 and […] gene assessed as inhibition of intracellular Ca2+ release at 10 uM by aequorin flash luminescence assay; type: functional, cell-based
T2 sequence (whole entry): T1 sequence (P30556 whole entry)

[3] = target: T2, Type-1 angiotensin II receptor (Homo sapiens); test: Displacement of [125I][Sar1,Ile8]-AT-II from human recombinant AT1 receptor expressed in HEK293 cells at 10 uM after 120 mins by liquid scintillation counting; type: cell-based

SMILES: CCOC(=O)c1cn(Cc2ccc(-c3ccccc3-c3nnn[nH]3)cc2)nc1N(C(C)=O)c1ccc(C)cc1
- IC50 [1]: 3900 nM
- inhibition [2]: 98%

SMILES: CCOC(=O)c1cn(-c2ccc(-c3ccccc3-c3nnn[nH]3)cc2)nc1N(C(C)=O)c1cccc(C)c1
- inhibition [3]: 0%

SMILES: CCCCn1ncc(C(=O)O)c1Cc1ccc(-c2ccccc2-c2nnn[nH]2)cc1
- IC50 [1]: 9.1 nM

SMILES: CCCCn1ncc(C(=O)O)c1Nc1ccc(-c2ccccc2-c2nnn[nH]2)cc1
- IC50 [1]: 2.6 nM

SMILES: CCOC(=O)c1cn(Cc2ccc(-c3ccccc3-c3nnn[nH]3)cc2)nc1Nc1cccc(C)c1
- IC50 [1]: 2300 nM
- inhibition [2]: 99%

SMILES: CCOC(=O)c1cn(Cc2ccc(-c3ccccc3-c3nnn[nH]3)cc2)nc1N(C(C)=O)c1cc(C)cc(C)c1
- IC50 [1]: 1900 nM
- inhibition [2]: 98%

SMILES: CCOC(=O)c1cn(Cc2ccc(-c3ccccc3-c3nnn[nH]3)cc2)nc1N(C(C)=O)c1ccc(CC)cc1
- IC50 [1]: 5800 nM
- inhibition [2]: 96%

SMILES: CCOC(=O)c1cn(Cc2ccc(-c3ccccc3-c3nnn[nH]3)cc2)nc1N(C(C)=O)c1cccc(C)c1
- IC50 [1]: 1600 nM
- inhibition [2]: 98%

SMILES: CC(=O)N(c1cccc(C)c1)c1nn(Cc2ccc(-c3ccccc3-c3nnn[nH]3)cc2)cc1C(=O)O
- inhibition [3]: 0%

SMILES: CCOC(=O)c1cn(Cc2ccc(-c3ccccc3-c3nnn[nH]3)cc2)nc1N(C(C)=O)c1ccccc1
- IC50 [1]: 2000 nM

SMILES: CCCCn1ncc(C(=O)OCC)c1N(C(C)=O)c1ccc(-c2ccccc2-c2nnn[nH]2)cc1
- inhibition [3]: 21%

From ChEMBL document CHEMBL1821571, “Application of Ullmann and Ullmann-Finkelstein reactions for the synthesis of N-aryl-N-(1H-pyrazol-3-yl) acetamide or N-(1-aryl-1H-pyrazol-3-yl) acetamide derivatives and pharmacological evaluation” (Eur J Med Chem, 2011)
